“And” between values parts separate entries of the source, which are not always exact repeats. Equal entries are not always repeated.
Tests used:
[1] = molecular target: T1, E. coli dihydrofolate reductase (DHFRec) (Escherichia coli, UniProt P0ABQ4); test: ALIS affinity selection-mass spectrometry with E. coli DHFR; assay type: binding
T1 construct: made in house
Excerpt: (§1) Utilizing the ALIS techniques described above, the affinity of ligands for DHFRec was compared to the affinity of the same ligands for the bovine (B. taurus) DHFR enzyme.

[2] = system: E. coli BL21(DE3); test: Determination of antibacterial activity (inhibition of bacterial growth, absorbance at 600 nm); assay type: cell-based; settings: Escherichia coli, 24 hours at 37° C.
Protocol: Protocols for the measurement of IC50 for the evaluation of antibacterial activity followed standard methods [Antibiotics in Laboratory Medicine, V. Lorian, Ed. Fourth edition, 1996. Williams and Wilkins; Baltimore, Md.]. Briefly, purified (S)-29, antibiotic control, or vehicle (DMSO) was subjected to serial dilution into Luria-Bertani growth medium in a manner that placed 0.1 mL aliquots of medium-plus-vehicle or medium-plus-antibiotic into each well of a sterile polystyrene 96-well plate. To aid compound dissolution, medium-analyte mixtures were warmed to 37° C. for eight hours with agitation. Bacterial cells, [E. coli: hsdS gal (λcIts857 ind 1 Sam7 nin5 lacUV5-T7 gene 1); BL21(DE3)] were grown in to mid-log phase at 37° C. The culture was then diluted 1:10^5 into prewarmed growth medium. Aliquots of diluted bacterial culture (0.1 mL) were then combined with the pre-aliquotted medium-analyte mixtures to yield 0.2 mL inoculated cultures containing no more than 2.5% DMSO. The plated inoculate series were then grown for twenty-four hours at 37° C. with orbital shaking. Bacterial cell growth was quantitated by measuring absorbance at 600 nm. IC50 for the inhibition of bacterial growth was defined as the concentration of drug at which cell growth was half maximal at twenty-four hours.

[3] = molecular target: T2, bovine (B. taurus) DHFR enzyme (Bos taurus, UniProt P00376); test: ALIS affinity selection with bovine DHFR; assay type: binding; settings: FIG. 9
T2 sequence (P00376 1-187): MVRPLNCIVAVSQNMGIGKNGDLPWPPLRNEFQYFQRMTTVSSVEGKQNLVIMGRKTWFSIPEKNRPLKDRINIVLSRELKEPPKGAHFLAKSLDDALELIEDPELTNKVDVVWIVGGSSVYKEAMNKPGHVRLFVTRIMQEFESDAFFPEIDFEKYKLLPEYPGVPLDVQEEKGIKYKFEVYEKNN
Excerpt: as §1

SMILES | ligand identified by affinity selection LC-MS-MS ([1]; sublibrary from Core 6 with building blocks 15 and 21) | IC50 [2] | affinity for DHFRec (ALIS) ([1]; E. coli enzyme, FIG. 9) | specificity for E. coli DHFR over bovine DHFR ([1]; pathogen vs. host DHFR, FIG. 9) | affinity for bovine (B. taurus) DHFR (ALIS) [3]
COc1ccc([C@@H](C)NCC(O)COc2cc(C(=O)N3CCN(c4cccc(Cl)c4)CC3)on2)cc1 (some centres unmarked) [Core 29] | matched that assigned to regioisomer 29 |  |  |  | 
COc1ccc([C@@H](C)NC[C@H](O)COc2cc(C(=O)N3CCN(c4cccc(Cl)c4)CC3)on2)cc1 [(S)-29] |  | 56 µM and 29 µg/mL | selectively binds to the E. coli enzyme | exhibits specificity for E. coli DHFR over bovine (B. taurus) DHFR | no detectable affinity

Source: patent publication US20020077491A1, “Methods for forming combinatorial libraries combining amide bond formation with epoxide opening” (priority 2000, published 2002)
